This passage reports IC50 results from patent publication US20260035387A1 (BIOGEN MA INC., priority 2022, published 2026).

In general, IC50 refers to the concentration that inhibits the measured activity by half. A high value points to weaker potency in that assay.

For this assay, the system named is mutant Huntington (HTT) protein. The assay is described as follows: HTT Mutant HTRF iPSC assay (mHTT protein lowering). The format is cell-based. The following applies: human iPSC derived from a HTT patient with a poly-Q49 mutation. A general note: Time-resolved FRET reads energy transfer from a long-lived donor to a nearby acceptor.

In turn, `Cc1cn2cc(NC(=O)c3nc4ccc(N5CCC(N(C)C)C5)nc4s3)ccc2n1` (centres unmarked) [Compound 9, 5-[3-(dimethylamino)pyrrolidin-1-yl]-N-(2-methylimidazo[1,2-a]pyridin-6-yl)thiazolo[5,4-b]pyridine-2-carboxamide] showed an IC50 of 1000 to 9000 nM.

On to `Cc1cn2cc(NC(=O)c3cc4ccc(N5CC[C@@H](N(C)C)C5)nc4s3)cc(F)c2n1` [Compound 10, 6-[(3R)-3-(dimethylamino)pyrrolidin-1-yl]-N-(8-fluoro-2-methyl-imidazo[1,2-a]pyridin-6-yl)thieno[2,3-b]pyridine-2-carboxamide], for which the IC50 is under 100 nM.

On to `Cc1cn2cc(NC(=O)c3cc4ccc(N5CCC(N(C)C)CC5)nc4s3)ccc2n1` [Compound 11, 6-(4-(dimethylamino)piperidin-1-yl)-N-(2-methylimidazo[1,2-a]pyridin-6-yl)thieno[2,3-b]pyridine-2-carboxamide], for which the IC50 fell in the range of 100 to 1000 nM.

`Cc1cn2cc(NC(=O)c3cc4ccc(NC5CC6CCCN6C5)nc4s3)ccc2n1` (centres unmarked) [Compound 12, 6-((hexahydro-1H-pyrrolizin-2-yl)amino)-N-(2-methylimidazo[1,2-a]pyridin-6-yl)thieno[2,3-b]pyridine-2-carboxamide] showed an IC50 of 100 to 1000 nM.

Compound `Cc1cn2cc(NC(=O)c3cc4ccc(NC5CCC6CN(C)CC65)nc4s3)ccc2n1` (centres unmarked) [Compound 13, N-(2-methylimidazo[1,2-a]pyridin-6-yl)-6-((2-methyloctahydrocyclopenta[c]pyrrol-4-yl)amino)thieno[2,3-b]pyridine-2-carboxamide] gave an IC50 of 1000 to 9000 nM.

As for `Cc1cn2cc(NC(=O)c3cc4ccc(NC5CCN6CCCC6C5)nc4s3)ccc2n1` (centres unmarked) [Compound 14, N-(2-methylimidazo[1,2-a]pyridin-6-yl)-6-((octahydroindolizin-7-yl)amino)thieno[2,3-b]pyridine-2-carboxamide], the 50% inhibitory concentration (IC50) is 100 to 1000 nM.

On to `Cc1cn2cc(NC(=O)c3cc4ccc(N5CCC6OCCN(C)C6C5)nc4s3)ccc2n1` (centres unmarked) [Compound 15, 6-(4-methylhexahydro-2H-pyrido[4,3-b][1,4]oxazin-6(5H)-yl)-N-(2-methylimidazo[1,2-a]pyridin-6-yl)thieno[2,3-b]pyridine-2-carboxamide], for which the IC50 lay within 100 to 1000 nM.

In turn, `Cc1cn2cc(NC(=O)c3cc4ccc(N5CCC6CCN(C)CC65)nc4s3)ccc2n1` (centres unmarked) [Compound 16, N-(2-methylimidazo[1,2-a]pyridin-6-yl)-6-(6-methyloctahydro-1H-pyrrolo[2,3-c]pyridin-1-yl)thieno[2,3-b]pyridine-2-carboxamide] came in with an IC50 of 1000 to 9000 nM.

As for `Cc1cn2cc(NC(=O)c3cc4ccc(N5CCC(N6CC(C)(C)C6)CC5)nc4s3)ccc2n1` [Compound 17, 6-(4-(3,3-dimethylazetidin-1-yl)piperidin-1-yl)-N-(2-methylimidazo[1,2-a]pyridin-6-yl)thieno[2,3-b]pyridine-2-carboxamide], the concentration for half-maximal inhibition (IC50) is 1000 to 9000 nM.

As to `Cc1cn2cc(NC(=O)c3cc4ccc(N5C[C@@H](C)N(C)[C@@H](C)C5)nc4s3)ccc2n1` [Compound 18, N-(2-methylimidazo[1,2-a]pyridin-6-yl)-6-((3R,5S)-3,4,5-trimethylpiperazin-1-yl)thieno[2,3-b]pyridine-2-carboxamide], the IC50 was under 100 nM.

Take `Cc1cn2cc(NC(=O)c3cc4ccc(N5CCC(N6CCCC6)C5)nc4s3)ccc2n1` (centres unmarked) [Compound 19, 6-([1,3′-bipyrrolidin]-1′-yl)-N-(2-methylimidazo[1,2-a]pyridin-6-yl)thieno[2,3-b]pyridine-2-carboxamide]: the IC50 lay within 100 to 1000 nM.

`Cc1cn2cc(NC(=O)c3cc4ccc(N5CCC6(CCN(C)CC6)CC5)nc4s3)ccc2n1` [Compound 20]: the IC50 fell in the range of 100 to 1000 nM.

For the compound `Cc1cn2cc(NC(=O)c3cc4ccc(N5C[C@H]6CN(C)C[C@H]6C5)nc4s3)ccc2n1` [Compound 21, 6-((3aR,6aS)-5-methylhexahydropyrrolo[3,4-c]pyrrol-2(1H)-yl)-N-(2-methylimidazo[1,2-a]pyridin-6-yl)thieno[2,3-b]pyridine-2-carboxamide], the IC50 is 100 to 1000 nM.

For the compound `Cc1cn2cc(NC(=O)c3cc4ccc(N5CC(N(C)C)C5)nc4s3)ccc2n1` [Compound 22, 6-(3-(dimethylamino)azetidin-1-yl)-N-(2-methylimidazo[1,2-a]pyridin-6-yl)thieno[2,3-b]pyridine-2-carboxamide], the IC50 was in the range of 1000 to 9000 nM.

`Cc1cn2cc(NC(=O)c3cc4ccc(N(C)CCN(C)C)nc4s3)ccc2n1` [Compound 23, 6-((2-(dimethylamino)ethyl)(methyl)amino)-N-(2-methylimidazo[1,2-a]pyridin-6-yl)thieno[2,3-b]pyridine-2-carboxamide] came in with a half-inhibitory concentration (IC50) of 100 to 1000 nM.

Regarding `Cc1cn2cc(NC(=O)c3cc4ccc(N5C[C@@H]6[C@H](C5)[C@H]6N(C)C)nc4s3)ccc2n1` [Compound 24, 6-((1R,5S,6s)-6-(dimethylamino)-3-azabicyclo[3.1.0]hexan-3-yl)-N-(2-methylimidazo[1,2-a]pyridin-6-yl)thieno[2,3-b]pyridine-2-carboxamide], the IC50 is 1000 to 9000 nM.

As for `Cc1cn2cc(NC(=O)c3cc4ccc(N5CC6CCC5CN6C)nc4s3)ccc2n1` (centres unmarked) [Compound 27, 6-(5-methyl-2,5-diazabicyclo[2.2.2]octan-2-yl)-N-(2-methylimidazo[1,2-a]pyridin-6-yl)thieno[2,3-b]pyridine-2-carboxamide], the IC50 was in the range of 100 to 1000 nM.

Consider `CC(=O)N1C[C@@H]2CN(c3ccc4cc(C(=O)Nc5ccc6nc(C)cn6c5)sc4n3)C[C@@H]2C1` [Compound 29, 6-((3aR,6aS)-5-acetylhexahydropyrrolo[3,4-c]pyrrol-2(1H)-yl)-N-(2-methylimidazo[1,2-a]pyridin-6-yl)thieno[2,3-b]pyridine-2-carboxamide], for which the IC50 was in the range of 1000 to 9000 nM.

Turning to `Cc1cn2cc(NC(=O)c3cc4ccc(N5CCN(C)c6ncccc6C5)nc4s3)ccc2n1` [Compound 31, 6-(1-methyl-1,2,3,5-tetrahydro-4H-pyrido[2,3-e][1,4]diazepin-4-yl)-N-(2-methylimidazo[1,2-a]pyridin-6-yl)thieno[2,3-b]pyridine-2-carboxamide], the IC50 lay within 100 to 1000 nM.

On to `Cc1cn2cc(NC(=O)c3cc4ccc(N5CC6CCC(N(C)C)CC6C5)nc4s3)ccc2n1` (centres unmarked) [Compound 32, 6-(5-(dimethylamino)octahydro-2H-isoindol-2-yl)-N-(2-methylimidazo[1,2-a]pyridin-6-yl)thieno[2,3-b]pyridine-2-carboxamide], for which the IC50 is 1000 to 9000 nM.

Compound `Cc1cn2cc(NC(=O)c3cc4ccc(N5C[C@@H](C)N(CC(F)(F)F)[C@@H](C)C5)nc4s3)ccc2n1` [Compound 33] had an IC50 of 100 to 1000 nM.

Compound `Cc1cn2cc(NC(=O)c3cc4ccc(N5CCC(N6CC(C)(C)C6)C5)nc4s3)ccc2n1` (centres unmarked) [Compound 35, 6-(3-(3,3-dimethylazetidin-1-yl)pyrrolidin-1-yl)-N-(2-methylimidazo[1,2-a]pyridin-6-yl)thieno[2,3-b]pyridine-2-carboxamide] registered an IC50 of 100 to 1000 nM.

With `Cc1cn2cc(NC(=O)c3cc4ccc(N5CCC6C(CCCN6C)C5)nc4s3)ccc2n1` (centres unmarked) [Compound 36, N-(2-methylimidazo[1,2-a]pyridin-6-yl)-6-(1-methyloctahydro-1,6-naphthyridin-6(2H)-yl)thieno[2,3-b]pyridine-2-carboxamide], the IC50 is 100 to 1000 nM.

As for `Cc1cn2cc(NC(=O)c3cc4ccc(N(C)C5CN6CCC5CC6)nc4s3)ccc2n1` (centres unmarked) [Compound 38, 6-(methyl(quinuclidin-3-yl)amino)-N-(2-methylimidazo[1,2-a]pyridin-6-yl)thieno[2,3-b]pyridine-2-carboxamide], the IC50 was 100 to 1000 nM.

For the compound `Cc1cn2cc(NC(=O)c3cc4ccc(Nc5ccc(CN6CCCC6)cc5)nc4s3)ccc2n1` [Compound 39, N-(2-methylimidazo[1,2-a]pyridin-6-yl)-6-((4-(pyrrolidin-1-ylmethyl)phenyl)amino)thieno [2,3-b]pyridine-2-carboxamide], the IC50 was in the range of 1000 to 9000 nM.

As for `Cc1cn2cc(NC(=O)c3cc4ccc(N5CCCN(C)CC5)nc4s3)ccc2n1` [Compound 40, 6-(4-methyl-1,4-diazepan-1-yl)-N-(2-methylimidazo[1,2-a]pyridin-6-yl)thieno[2,3-b]pyridine-2-carboxamide], the IC50 lay within 100 to 1000 nM.

`Cc1cn2cc(NC(=O)c3cc4ccc(NCC(C)(C)CN(C)C)nc4s3)ccc2n1` [Compound 41, 6-((3-(dimethylamino)-2,2-dimethylpropyl)amino)-N-(2-methylimidazo[1,2-a]pyridin-6-yl)thieno[2,3-b]pyridine-2-carboxamide] registered a half-maximal inhibitory concentration (IC50) of 1000 to 9000 nM.

Compound `Cc1cn2cc(NC(=O)c3cc4ccc(Nc5cccc(N6CC(C)(C)C6)c5)nc4s3)ccc2n1` [Compound 42, 6-((3-(3,3-dimethylazetidin-1-yl)phenyl)amino)-N-(2-methylimidazo[1,2-a]pyridin-6-yl)thieno[2,3-b]pyridine-2-carboxamide] displayed an IC50 of 1000 to 9000 nM.

On to `Cc1cn2cc(NC(=O)c3cc4ccc(Nc5ccc(N6CC(C)(C)C6)cc5)nc4s3)ccc2n1` [Compound 44, 6-((4-(3,3-dimethylazetidin-1-yl)phenyl)amino)-N-(2-methylimidazo[1,2-a]pyridin-6-yl)thieno[2,3-b]pyridine-2-carboxamide], for which the IC50 lay in the range of 1000 to 9000 nM.

As for `Cc1cn2cc(NC(=O)c3cc4ccc(N5CC6CCCN6CC5C)nc4s3)ccc2n1` (centres unmarked) [Compound 45, 6-(3-methylhexahydropyrrolo[1,2-a]pyrazin-2(1H)-yl)-N-(2-methylimidazo[1,2-a]pyridin-6-yl)thieno[2,3-b]pyridine-2-carboxamide], the IC50 was in the range of 100 to 1000 nM.

The compound `CCN1Cc2cccc(Nc3ccc4cc(C(=O)Nc5ccc6nc(C)cn6c5)sc4n3)c2C1` [Compound 46, 6-((2-ethylisoindolin-4-yl)amino)-N-(2-methylimidazo[1,2-a]pyridin-6-yl)thieno[2,3-b]pyridine-2-carboxamide] showed an IC50 of 1000 to 9000 nM.

In the case of `Cc1cn2cc(NC(=O)c3cc4ccc(Nc5ccc6c(c5)N(C)CCN(C)C6)nc4s3)ccc2n1` [Compound 47, 6-((1,4-dimethyl-2,3,4,5-tetrahydro-1H-benzo[e][1,4]diazepin-8-yl)amino)-N-(2-methylimidazo[1,2-a]pyridin-6-yl)thieno[2,3-b]pyridine-2-carboxamide], the IC50 fell in the range of 1000 to 9000 nM.
